According to patent publication US10441681B2, “Materials and methods for nerve grafting” (University of Florida Research Foundation, Inc., priority 2001, dated 2019):

System: chick DRG neurons
Experiment: Cryoculture assay using human nerve segments
Assay type: cell-based
Details: 24 h
Description: Cryoculture is a neurite outgrowth assay in which neurons are cultured directly on fresh/frozen nerve sections and was performed as described previously (Ferguson T A et al. [2000] Mol Cell Neurosci, 16:157-167). Briefly, chondroitinase- and vehicle-treated nerve segments were sectioned at 20 μm, mounted on sterile, aminopropyltriethoxysilane (APTS)-coated coverslips and stored at −20° C. until used. Where indicated, sections were treated with chondroitinase ABC (0.1 unit/ml) or vehicle (50 mM Tris-HCl, pH 8.0), containing 50 mM NaCl) for 2 h at 37° C. Purified dorsal root ganglionic (DRG) neurons from day 8 chick embryos were seeded directly on the nerve sections in a defined N2 medium (Bottenstein J E et al. [1980] Exp Cell Res 125:183-190) containing 10 ng/ml nerve growth factor. Cryoculture assays were terminated after 24 h of incubation by fixation with 100% methanol. Neuritic growth by DRG neurons was accessed by GAP-43 immunofluorescent labeling. Epifluorescent photomicrographs were acquired as described for tissue sections. Neurite lengths were measured directly using IMAGE-PRO PLUS software (MEDIA CYBERNETICS, Silver Springs, Md.). At least 250 neurons with neurites greater than one cell body (˜15 μm) were scored for each condition in each experiment.
Many of the experiments described in the examples above performed using rat nerves also have been replicated using human nerve. […]

chondroitinase ABC
growth-promoting properties of human nerves: increased
